Usually Ki stands for the equilibrium dissociation constant of an inhibitor or competing ligand from its target. A low value points to a stronger hold on the target.

T1 sequence (Q9Y5N1 whole entry): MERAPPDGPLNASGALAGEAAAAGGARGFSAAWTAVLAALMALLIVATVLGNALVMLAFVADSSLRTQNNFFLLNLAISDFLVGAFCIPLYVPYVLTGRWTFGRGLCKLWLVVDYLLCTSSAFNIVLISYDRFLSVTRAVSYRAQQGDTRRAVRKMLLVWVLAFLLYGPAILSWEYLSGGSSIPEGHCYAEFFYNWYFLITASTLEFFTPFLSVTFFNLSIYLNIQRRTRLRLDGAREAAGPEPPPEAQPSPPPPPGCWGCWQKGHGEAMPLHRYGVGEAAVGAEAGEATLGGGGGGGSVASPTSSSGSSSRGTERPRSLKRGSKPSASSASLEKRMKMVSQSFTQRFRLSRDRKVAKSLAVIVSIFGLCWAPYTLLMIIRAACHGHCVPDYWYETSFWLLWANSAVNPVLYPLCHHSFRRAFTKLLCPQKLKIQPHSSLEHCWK

The first test concerns the target T1, human histamine H3 receptor (Homo sapiens, UniProt Q9Y5N1).
T1 construct: One microgram of supercoiled H3 receptor cDNA was added to the cells and mixed; expressed in transfected cells; membranes
Briefly: [3H]-N-methylhistamine binding. The note with it: Table 1; [3H]-N-methylhistamine binding. As to the method:
Thus in the present invention receptor binding was determined using the human histamine H3 receptor (See Lovenberg et al Mol. Pharmacol. 1999, 1107). Screening using the human receptor is particularly important for the identification of new therapies for the treatment of human disease. Conventional binding assays for example are determined using rat synaptosomes (Garbarg et al J. Pharmacol. Exp. Ther. 1992, 263, 304), rat cortical membranes (West et al Mol. Pharmacol. 1990, 610), and guinea pig brain (Korte et al Biochem. Biophys. Res. Commun. 1990, 978). Only limited studies have been performed previously using human tissue but these allude to significant differences in the pharmacology of rodent and primate receptors (West et al Eur. J. Pharmacol. 1999, 233).
Transfection of Cells with Human Histamine Receptor
A 10 cm tissue culture dish with a confluent monolayer of SK-N-MC cells was split two days prior to transfection. Using sterile technique the media was removed and the cells were detached from the dish by the addition of trypsin. One fifth of the cells were then placed onto a new 10 cm dish. Cells were grown in a 37° C. incubator with 5% CO2 in Minimal Essential Media Eagle with 10% Fetal Bovine Serum. After two days cells were approximately 80% confluent. These were removed from the dish with trypsin and pelleted in a clinical centrifuge. The pellet was then re-suspended in 400 μL complete media and transferred to an electroporation cuvette with a 0.4 cm gap between the electrodes (Bio-Rad #165-2088). One microgram of supercoiled H3 receptor cDNA was added to the cells and mixed. The voltage for the electroporation was set at 0.25 kV, the capacitance was set at 960 μF. After electroporation the cells were diluted into 10 mL complete media and plated onto four 10 cm dishes. Because of the variability in the efficiency of electroporation, four different concentrations of cells were plated. The ratios used were; 1:20, 1:10, 1:5, with the remainder of the cells being added to the fourth dish. The cells were allowed to recover for 24 hours before adding the selection media (complete media with 600 μg/mL G418). After 10 days dishes were analyzed for surviving colonies of cells. Dishes with well isolated colonies were used. Cells from individual colonies were isolated and tested. SK-N-MC cells were used because they give efficient coupling for inhibition of adenylate cyclase. The clones that gave the most robust inhibition of adenylate cyclase in response to histamine were used for further study.
[^3H]-N-methylhistamine Binding
Cell pellets from histamine H3 receptor-expressing SK-N-MC cells were homogenized in 20 mM TrisHCl/0.5 mM EDTA. Supernatants from a 800 g spin were collected, recentrifuged at 30,000 g for 30 minutes. Pellets were re-homogenized in 50 mM Tris/5 mM EDTA (pH 7.4). Membranes were incubated with 0.8 nM [^3H]-N-methylhistamine plus/minus test compounds for 45 min at 25° C. and harvested by rapid filtration over GF/C glass fiber filters (pretreated with 0.3% polyethylenimine) followed by four washes with ice cold buffer. Filters were dried, added to 4 mL scintillation cocktail and then counted on a liquid scintillation counter. Non-specific binding was defined with 10 μM histamine. The pKi values were calculated based on a Kd of 800 pM and a ligand concentration ([L]) of 800 pM according to the formula: Ki=(IC50)/(1+([L]/(Kd))
Compound `CN(C)CCCOc1ccc([C@H]2CC[C@H]3CCCCN32)cc1` (racemic) [Example 17, Dimethyl-{3-[4-(octahydro-indolizin-3-yl)-phenoxy]-propyl}-amine] gave a Ki of 10 nM. The same measure, in the same setting: the same measure for `c1ccc(Oc2ccc([C@@H]3CC[C@H]4CCCCN43)cc2)cc1` (racemic) [Example 12]: 600 nM; for `c1ccc(-c2ccc([C@H]3CC[C@H]4CCCCN43)cc2)cc1` (racemic) [Example 3]: 1000 nM.

The same test, now with this note: Table 2; [3H]-N-methylhistamine binding.
Take `c1cncc(Oc2ccc([C@H]3CC[C@H]4CCCCN43)cc2)c1` (racemic) [Example 29]: affinity was put at a Ki of 150 nM. For `c1ccc(Sc2ccc([C@H]3CC[C@H]4CCCCN43)cc2)nc1` (racemic) [Example 28], the affinity, expressed as Ki, was 205 nM.

The same test, now with this note: Table 5; [3H]-N-methylhistamine binding.
`c1cc(CNc2ccc([C@H]3CC[C@H]4CCCCN43)cc2)cs1` (racemic) [Example 129] registered a Ki of 648 nM. On the same count and under the same terms, the same measure for `c1cc(CNc2ccc([C@H]3CC[C@H]4CCCCN43)cc2)ccn1` (racemic) [Example 131]: 511 nM. Still for that read-out and setting: the same measure for `c1c[nH]c(CNc2ccc([C@H]3CC[C@H]4CCCCN43)cc2)n1` (racemic) [Example 134]: 3640 nM; for `c1coc(CNc2ccc([C@H]3CC[C@H]4CCCCN43)cc2)c1` (racemic) [Example 130]: 647 nM; for `[O-][n+]1ccc(CNc2ccc([C@H]3CC[C@H]4CCCCN43)cc2)cc1` (racemic) [Example 133]: 4380 nM.

Staying with this test, now noted: [3H]-N-methylhistamine 0.8 nM, membranes of H3 receptor-expressing SK-N-MC cells.
The compound `NC(=NO)c1ccc(Sc2ccc([C@H]3CC[C@H]4CCCCN43)cc2)cc1` (racemic) [Example 43, tran-3-[4-((4-Amidoxime)phenylthio)phenyl]octahydroindolizine] yielded a Ki of 40 nM. Same read-out and setting: the same measure for `CS(=O)(=O)Nc1cccc(COc2ccc([C@H]3CC[C@H]4CCCCN43)cc2)c1` (racemic) [Example 83, trans-3-[4-(3-Methansulfonaminobenzyloxy)phenyl]octahydroindolizine]: 308 nM. Same read-out and setting: the same measure for `c1cc(OCCCN2CCCCC2)cc([C@H]2C[C@@H]3CCCCN3C2)c1` (racemic) [Example 72, anti-2-[3-(3-Piperidinylpropyloxy)phenyl]octahydroindolizine]: 0.3 nM; for `c1csc(-c2ccc([C@H]3CC[C@H]4CCCCN43)cc2)c1` (racemic) [Example 50, 3-(4-Thiophen-2-yl-phenyl)-octahydro-indolizine]: 173 nM.

Take `CN(C)CCCOc1ccc([C@H]2CC[C@H]3CCCCN32)cc1` (racemic) [Example 17, Dimethyl-{3-[4-(octahydro-indolizin-3-yl)-phenoxy]-propyl}-amine]: affinity was put at a Ki of 9.5 nM. As for `c1cc([C@@H]2CCC[C@@H]3CCCN32)ccc1OCCN1CCCCC1` (racemic) [Example 63, 5-[4-(2-Piperidinylethanoxy)phenyl]octahydroindolizine], the Ki was 5 nM. Still for that read-out and setting: the same measure for `CN(C(=O)CCCCN1CCCCC1)c1ccc([C@H]2CC[C@H]3CCCCN32)cc1` (racemic) [Example 113, trans-3-[4-(N-Methyl-N-5-piperidylpentanamido)phenyl]octahydroindolizine]: 63 nM; for `CS(=O)(=O)N1CCC(Nc2ccc([C@H]3CC[C@H]4CCCCN43)cc2)CC1` (racemic) [Example 102, trans-3-[4-(N-Methylsulfonyl-4-aminopiperidine)phenyl]octahydroindolizine]: 243 nM. Same read-out and setting: for `CN(c1ccc([C@@H]2CC[C@@H]3CCCCN32)cc1)S(=O)(=O)C1CCCNC1` (relative stereo) [Example 118, trans-3-[4-(3-Piperidylsulfonyl-N-methylamino)phenyl]octahydroindolizine] the value was 61 nM; for `FC(F)(F)Oc1ccc(-c2ccc([C@H]3CC[C@H]4CCCCN43)cc2)cc1` (relative stereo) [Example 47, trans-3-[4-(4-Trifluromethoxyphenyl)phenyl]octahydroindolizine], 1220 nM; for `C=CC(=O)Nc1ccc([C@@H]2CC[C@@H]3CCCCN32)cc1` (relative stereo) [Example 107, N-[4-(trans-Octahydro-3-indolizinyl)phenyl]propenamide], 327 nM. Take `CS(=O)(=O)Nc1ccc(Oc2ccc([C@H]3CC[C@H]4CCCCN43)cc2)cc1` (racemic) [Example 79, trans-3-[4-(4-Methansulfonaminophenoxy)phenyl]octahydroindolizine]: the Ki was found to be 46 nM. Same read-out and setting: the same measure for “trans-3-{4-[(2-Pyrrolidylethyl)sulfonylamino]phenyl}octahydroindolizine [Example 122]”: 534 nM; for `NCc1ccc(Sc2ccc([C@H]3CC[C@H]4CCCCN43)cc2)cc1` (racemic) [Example 44]: 9 nM. Same read-out and setting: for `O=S(=O)(Nc1ccc([C@@H]2CC[C@@H]3CCCCN32)cc1)C1CCCNC1` (relative stereo) [Example 117, trans-3-[4-(3-Piperidylsulfonylamino)phenyl]octahydroindolizine] the value was 4 nM; for `O=C(c1ccc(Cl)cc1)c1ccc([C@H]2CC[C@H]3CCCCN32)cc1` (racemic) [Example 124, trans-3-{4-[(4-Chlorophenyl)methan-1-oxo]phenyl}octahydroindolizine], 368 nM; for `Clc1ccc(Cc2ccc([C@H]3CC[C@H]4CCCCN43)cc2)cc1` (racemic) [Example 125], 655 nM. On the same count and under the same terms, the same measure for `CC(C)(C)OC(=O)N1CCC(Nc2ccc([C@H]3CC[C@H]4CCCCN43)cc2)CC1` (racemic) [Example 100]: 517 nM; for `C[Si](C)(C)C#Cc1ccc([C@H]2CC[C@H]3CCCCN32)cc1` (racemic) [Example 74, trans-3-(4-trimethylsilylacetylenephenyl)octahydroindolizine]: 1500 nM; for `CCN(c1ccc([C@H]2CC[C@H]3CCCCN32)cc1)C1CCN(S(C)(=O)=O)CC1` (racemic) [Example 104, trans-3-[4-(N-Ethyl-N-4-N-methylsufonylpiperidinylamino)phenyl]octahydroindolizine]: 1780 nM. `CS(=O)(=O)Nc1ccc([C@@H]2CC[C@@H]3CCCCN32)cc1` (relative stereo) [Example 97, trans-3-(4-(Methylsulfonylamino)phenyl)octahydroindolizine] registered a Ki of 481 nM.

For `c1cc([C@@H]2CCC[C@@H]3CCCN32)ccc1OCCCCCN1CCCCC1` [Example 65], the Ki stood at 1 nM.

Compound `C(#CCN1CCCCC1)COc1ccc([C@H]2CC[C@H]3CCCCN32)cc1` (relative stereo) [Example 84, trans-3-[4-(3-Piperidinylmethylpropargyloxy)phenyl]octahydroindolizine] showed a Ki of 1.8 nM.

`O=C(CCCCN1CCCCC1)Nc1ccc([C@@H]2CC[C@@H]3CCCCN32)cc1` (relative stereo) [Example 112, trans-3-[4-(N-5-Piperidylpentanamido)phenyl]octahydroindolizine] showed a Ki of 2.1 nM. Still for that read-out and setting: the same measure for `CC(C)(C)OC(=O)N1CCCCC1CCOc1ccc([C@H]2CC[C@H]3CCCCN32)cc1` (mixture of isomers) [Example 85, trans-3-{4-[2,2′-(1-tert-Butylcarboxylatepiperidinyl)ethoxy]phenyl}-octahydroindolizine]: 51 nM; for `O=Cc1ccc([C@H]2CC[C@H]3CCCCN32)cc1` (racemic) [trans-3-(4-Formylphenyl)octahydroindolizine]: 587 nM. The same measure, in the same setting: for `c1cc([C@@H]2CC[C@@H]3CCCCN32)ccc1OCCCN1CCCCC1` [Example 94, (S, S)-3-(4-(3-Piperidinylpropoxy)phenyl)octahydroindolizine] the value was 0.06 nM; for `COc1ccccc1[C@H]1C[C@@H]2CCCCN2C1` (relative stereo) [Example 70, anti-2-(2-Methoxyphenyl)octahydroindolizine], 792 nM.
